Reference: ChEMBL document CHEMBL1201862, “PubChem BioAssay data set” (2004)
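How tested: cells in 96-well plates exposed to compound for 48 hours at five concentrations. Here, GI50 denotes the concentration required for 50% inhibition of growth.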 Calls of active or inactive are those of the source. No stated cut-off is given here; in the data, active = GI50 up to about 1.1 µM and inactive = higher.

What was measured:
Experiment in all cases: growth of human tumour cells (NCI), 48 h
SF-539 = tested on: SF-539
HT-29 = tested on: HT-29
HCC 2998 = tested on: HCC 2998
786-0 = tested on: 786-0
MDA-MB-231 = tested on: MDA-MB-231
UACC-62 = tested on: UACC-62
OVCAR-4 = tested on: OVCAR-4
SNB-75 = tested on: SNB-75
K562 = tested on: K562
HL-60 = tested on: HL-60
SF-295 = tested on: SF-295
A549 = tested on: A549
SNB-19 = tested on: SNB-19
OVCAR-5 = tested on: OVCAR-5
SR = tested on: SR
CCRF-CEM = tested on: CCRF-CEM
A498 = tested on: A498
SK-MEL-5 = tested on: SK-MEL-5
MOLT-4 = tested on: MOLT-4
TK-10 = tested on: TK-10

SMILES	GI50 (SF-539)	GI50 (HT-29)	GI50 (HCC 2998)	GI50 (786-0)	GI50 (MDA-MB-231)	GI50 (UACC-62)	GI50 (OVCAR-4)	GI50 (SNB-75)	GI50 (K562)	GI50 (HL-60)	GI50 (SF-295)	GI50 (A549)	GI50 (SNB-19)	GI50 (OVCAR-5)	GI50 (SR)	GI50 (CCRF-CEM)	GI50 (A498)	GI50 (SK-MEL-5)	GI50 (MOLT-4)	GI50 (TK-10)
Cc1ccc(NC(=O)/C(=N\NC(N)=O)c2c(O)c3ccccc3[nH]c2=O)cc1	> 100 µM (inactive)	> 100 µM (inactive)	> 100 µM (inactive)	> 100 µM (inactive)	> 100 µM (inactive)	> 100 µM (inactive)	> 100 µM (inactive)	99.8 µM (inactive)	> 100 µM (inactive)	> 100 µM (inactive)	> 100 µM (inactive)	> 100 µM (inactive)	> 100 µM (inactive)	> 100 µM (inactive)	> 100 µM (inactive)	> 100 µM (inactive)	> 100 µM (inactive)	> 100 µM (inactive)	> 100 µM (inactive)	–
C[C@@H](C[C@H]1OC(C)(C)O[C@@H]1C(C)(C)O)[C@H]1CC=C2[C@]3(C)[C@H](O)C[C@H]4C(C)(C)[C@H](O)CC[C@]4(C)[C@H]3CC[C@]21C	11.9 µM (inactive)	2.9 µM (inactive)	7.08 µM (inactive)	9.73 µM (inactive)	7.93 µM (inactive)	11.5 µM (inactive)	8.51 µM (inactive)	9.79 µM (inactive)	3.99 µM (inactive)	2.62 µM (inactive)	9.14 µM (inactive)	5.86 µM (inactive)	10.7 µM (inactive)	8.69 µM (inactive)	4.76 µM (inactive)	5.64 µM (inactive)	10.7 µM (inactive)	7.36 µM (inactive)	4.52 µM (inactive)	11.7 µM (inactive)
Cc1ccc([N+](=O)[O-])c2c(NCCC[N+](C)(C)[O-])ccnc12	> 100 µM (inactive)	34.8 µM (inactive)	23.4 µM (inactive)	> 100 µM (inactive)	> 100 µM (inactive)	> 10 µM (inactive)	20.3 µM (inactive)	55.7 µM (inactive)	27.5 µM (inactive)	31.3 µM (inactive)	28.8 µM (inactive)	33.2 µM (inactive)	89.5 µM (inactive)	28.2 µM (inactive)	48.5 µM (inactive)	44.6 µM (inactive)	32.2 µM (inactive)	12.2 µM (inactive)	34.8 µM (inactive)	> 100 µM (inactive)
CCN(CC)CCOc1ccc(N2C(=O)c3cccc4cc([N+](=O)[O-])cc(c34)C2=O)cc1	9.02 µM (inactive)	4.91 µM (inactive)	11.6 µM (inactive)	4.76 µM (inactive)	18.8 µM (inactive)	–	16.3 µM (inactive)	14.5 µM (inactive)	–	11.8 µM (inactive)	6.55 µM (inactive)	0.977 µM (active)	12.8 µM (inactive)	2.88 µM (inactive)	0.372 µM (active)	4.23 µM (inactive)	9.62 µM (inactive)	12.1 µM (inactive)	1.67 µM (inactive)	13.3 µM (inactive)
COC(=O)[C@@H](NS(=O)(=O)CC12CCC(CC1)C2(C)C)C(C)(C)C	> 100 µM (inactive)	> 100 µM (inactive)	> 100 µM (inactive)	> 100 µM (inactive)	> 100 µM (inactive)	> 100 µM (inactive)	> 100 µM (inactive)	> 100 µM (inactive)	> 100 µM (inactive)	> 100 µM (inactive)	> 100 µM (inactive)	> 100 µM (inactive)	> 100 µM (inactive)	> 100 µM (inactive)	23.3 µM (inactive)	> 100 µM (inactive)	> 100 µM (inactive)	> 100 µM (inactive)	4.85 µM (inactive)	> 100 µM (inactive)
CCCCCCCCCCCC[C@@H](O)[C@H]1CC[C@H]([C@H](O)CC[C@H](O)[C@@H]2CC[C@@H](CCCCCCCC3=C[C@H](C)OC3=O)O2)O1	> 50 µM (inactive)	> 50 µM (inactive)	> 50 µM (inactive)	> 50 µM (inactive)	> 50 µM (inactive)	1.53 µM (inactive)	> 50 µM (inactive)	> 50 µM (inactive)	–	1.74 µM (inactive)	> 12.6 µM (inactive)	> 50 µM (inactive)	> 50 µM (inactive)	> 50 µM (inactive)	1.27 µM (inactive)	> 38.4 µM (inactive)	> 50 µM (inactive)	–	> 15.2 µM (inactive)	> 50 µM (inactive)
C=C[C@H]1CN2CCc3c([nH]c4c([C@@H]5CCCN5C)c(O)ccc34)[C@@H]2C[C@@H]1C[C@H]1c2[nH]c3ccccc3c2CCN1C	1.64 µM (inactive)	1.28 µM (inactive)	1.72 µM (inactive)	1.4 µM (inactive)	1.76 µM (inactive)	1.83 µM (inactive)	1.71 µM (inactive)	1.22 µM (inactive)	0.211 µM (active)	0.524 µM (active)	1.57 µM (inactive)	1.5 µM (inactive)	1.64 µM (inactive)	1.79 µM (inactive)	0.256 µM (active)	0.00427 µM (active)	1.85 µM (inactive)	1.57 µM (inactive)	0.692 µM (active)	1.57 µM (inactive)
COC(=O)/C=C(\C)CC/C=C(\C)CCC1OC1(C)C (stereo unspecified)	13.5 µM (inactive)	14 µM (inactive)	9.66 µM (inactive)	12.6 µM (inactive)	12.1 µM (inactive)	10.1 µM (inactive)	11.8 µM (inactive)	17.4 µM (inactive)	3.11 µM (inactive)	1.87 µM (inactive)	11.3 µM (inactive)	12.9 µM (inactive)	44.7 µM (inactive)	13.6 µM (inactive)	8.79 µM (inactive)	4.65 µM (inactive)	14.5 µM (inactive)	11.4 µM (inactive)	8.17 µM (inactive)	12.4 µM (inactive)
CC1=NC(=Cc2cccc(Cl)c2)C(=O)N1n1c(-c2ccccc2)nc2ccccc2c1=O	36.1 µM (inactive)	36 µM (inactive)	24.5 µM (inactive)	48.6 µM (inactive)	48.5 µM (inactive)	23.6 µM (inactive)	–	35.9 µM (inactive)	41.6 µM (inactive)	22.8 µM (inactive)	35.7 µM (inactive)	35.8 µM (inactive)	59.2 µM (inactive)	–	25.2 µM (inactive)	35.6 µM (inactive)	26.4 µM (inactive)	28.2 µM (inactive)	27.9 µM (inactive)	50.6 µM (inactive)
O=[N+]([O-])c1cccnc1NCC1(CO)CC(Cc2ccccc2)C1 (stereo unspecified)	> 100 µM (inactive)	> 100 µM (inactive)	> 100 µM (inactive)	> 100 µM (inactive)	> 100 µM (inactive)	> 100 µM (inactive)	> 100 µM (inactive)	> 100 µM (inactive)	> 100 µM (inactive)	> 100 µM (inactive)	> 100 µM (inactive)	> 100 µM (inactive)	–	> 100 µM (inactive)	> 100 µM (inactive)	> 100 µM (inactive)	> 100 µM (inactive)	> 100 µM (inactive)	> 100 µM (inactive)	> 100 µM (inactive)
COc1ccc(-c2c(C#N)c(O)n(C3OC(CO)C(O)C(O)C3O)c(=S)c2C#N)cc1 (stereo unspecified)	> 100 µM (inactive)	> 100 µM (inactive)	> 100 µM (inactive)	> 100 µM (inactive)	> 100 µM (inactive)	> 100 µM (inactive)	–	> 100 µM (inactive)	> 100 µM (inactive)	> 100 µM (inactive)	> 100 µM (inactive)	> 100 µM (inactive)	> 100 µM (inactive)	> 100 µM (inactive)	> 100 µM (inactive)	> 100 µM (inactive)	> 100 µM (inactive)	> 100 µM (inactive)	> 100 µM (inactive)	> 100 µM (inactive)
Nc1ncc(/C=N/O)c(NCC2(CO)CC(CCc3ccccc3)C2)n1 (stereo unspecified)	13.8 µM (inactive)	2.67 µM (inactive)	15.5 µM (inactive)	15.2 µM (inactive)	9.71 µM (inactive)	12.3 µM (inactive)	8.26 µM (inactive)	14.5 µM (inactive)	0.144 µM (active)	2.2 µM (inactive)	1.02 µM (active)	2.48 µM (inactive)	–	16.9 µM (inactive)	4.36 µM (inactive)	14.7 µM (inactive)	11 µM (inactive)	0.0577 µM (active)	3.36 µM (inactive)	> 10 µM (inactive)
O=C(O)CCCc1nc2c(n1-c1ccccc1)C(=O)c1ccccc1C2=O	94 µM (inactive)	–	91.8 µM (inactive)	> 100 µM (inactive)	77.3 µM (inactive)	32.8 µM (inactive)	23.9 µM (inactive)	43.5 µM (inactive)	69.8 µM (inactive)	37.4 µM (inactive)	60 µM (inactive)	> 100 µM (inactive)	> 100 µM (inactive)	> 100 µM (inactive)	77.8 µM (inactive)	40.7 µM (inactive)	> 100 µM (inactive)	–	68.4 µM (inactive)	> 100 µM (inactive)
CS(=O)(=O)OCC1CN(S(C)(=O)=O)c2cc(O)ccc21 (stereo unspecified)	2.42 µM (inactive)	2.81 µM (inactive)	1.89 µM (inactive)	3.67 µM (inactive)	2.3 µM (inactive)	–	2.67 µM (inactive)	2.37 µM (inactive)	2.43 µM (inactive)	1.87 µM (inactive)	3.42 µM (inactive)	3.43 µM (inactive)	–	2.84 µM (inactive)	2.05 µM (inactive)	1.01 µM (active)	2.64 µM (inactive)	1.69 µM (inactive)	1.22 µM (inactive)	2.37 µM (inactive)
